Measurements published in ChEMBL document CHEMBL4680158, “C6-O-alkylated 7-deazainosine nucleoside analogues: Discovery of potent and selective anti-sleeping sickness agents” (Eur J Med Chem, 2020).

How the values were obtained:
[1] = tested on: Trypanosoma brucei brucei; assay: Antitrypanosomal activity against Trypanosoma brucei brucei assessed as reduction in parasite growth incubated for 3 days by resazurin dye based fluorescence assay; assay type: functional, organism-based; settings: 72 h
[2] = tested on: Trypanosoma brucei rhodesiense; assay: Antitrypanosomal activity against Trypanosoma brucei rhodesiense assessed as reduction in parasite growth incubated for 3 days by resazurin dye based fluorescence assay; assay type: functional, organism-based; settings: 72 h
MRC5 = assay: Cytotoxicity against human MRC5 cells assessed as reduction in cell viability incubated for 3 days by resazurin dye based fluorescence assay; settings: MRC5, 72 h
[3] = Selectivity index, ratio of EC50 for cytotoxicity against human MRC5 cells to EC50 for antitrypanosomal activity against Trypanosoma brucei brucei; assay type: toxicity, cell-based; settings: read-out: Ratio EC50
[4] = Selectivity index, ratio of EC50 for cytotoxicity against human MRC5 cells to EC50 for antitrypanosomal activity against Trypanosoma brucei rhodesiense; assay type: toxicity, cell-based; settings: read-out: Ratio EC50

| SMILES | EC50 [1] | EC50 [2] | EC50 (MRC5) | selectivity ratio [3] | selectivity ratio [4] |
| --- | --- | --- | --- | --- | --- |
| COc1ncnc2c1ccn2[C@@H]1O[C@H](CO)C[C@H]1O | > 64 µM | > 64 µM | > 64 µM | – | – |
| CCCOc1ncnc2c1c(Cl)cn2[C@@H]1O[C@H](CO)[C@@H](O)[C@H]1O | 0.081 µM | 0.076 µM | 2.81 µM | 34 | 37 |
| Nc1nc(Cl)c2c(Br)cn([C@@H]3O[C@H](CO)[C@@H](O)[C@H]3O)c2n1 | 0.13 µM | 0.047 µM | 40.2 µM | 316 | 847 |
| OC[C@H]1O[C@@H](n2cc(Cl)c3c(OC4CCCCC4)ncnc32)[C@H](O)[C@@H]1O | 0.4 µM | 0.38 µM | > 64 µM | > 161 | > 168 |
| OC[C@H]1O[C@@H](n2cc(Cl)c3c(OCCOc4ccccc4)ncnc32)[C@H](O)[C@@H]1O | 0.13 µM | 0.16 µM | 43.2 µM | 329 | 263 |
| O=c1[nH]cnc2c1c(Br)cn2[C@@H]1O[C@H](CO)[C@@H](O)[C@H]1O | 52.4 µM | 29.2 µM | > 64 µM | > 1.2 | 22 |
| O=c1[nH]cnc2c1c(Cl)cn2[C@@H]1O[C@H](CO)[C@@H](O)[C@H]1O | 10.7 µM | 25.1 µM | > 64 µM | > 6 | > 2.5 |
| O=c1[nH]cnc2c1c(-c1ccccc1)cn2[C@@H]1O[C@H](CO)[C@@H](O)[C@H]1O | 32.2 µM | 9.4 µM | > 64 µM | > 2 | > 6.8 |
| COCCOc1ncnc2c1c(Cl)cn2[C@@H]1O[C@H](CO)[C@@H](O)[C@H]1O | 0.17 µM | 0.22 µM | 4.13 µM | 25 | 18.8 |
| COc1ncnc2c1c(Br)cn2[C@@H]1O[C@H](CO)C[C@H]1O | 2.6 µM | 3.7 µM | 2.7 µM | 1 | 0.7 |
| Cc1nc2c(ccn2[C@@H]2O[C@H](CO)[C@@H](O)[C@H]2O)c(=O)[nH]1 | > 64 µM | 4.7 µM | > 64 µM | – | > 13 |
| OC[C@H]1O[C@@H](n2cc(Cl)c3c(OCCc4ccccc4)ncnc32)[C@H](O)[C@@H]1O | 0.095 µM | 0.03 µM | 0.31 µM | 3.3 | 10.3 |
| COc1ncnc2c1c(-c1ccc(Cl)cc1)cn2[C@@H]1O[C@H](CO)[C@@H](O)[C@H]1O | > 64 µM | 22.3 µM | 61.1 µM | – | 2.7 |
| O=c1[nH]cnc2c1ncn2[C@@H]1O[C@H](CO)C[C@H]1O | 1.1 µM | 6.7 µM | > 64 µM | – | – |
| Nc1nc2c(ccn2[C@@H]2O[C@H](CO)[C@@H](O)[C@H]2O)c(=O)[nH]1 | > 64 µM | 12.9 µM | > 64 µM | – | > 5 |
| OC[C@H]1O[C@@H](n2cc(C(F)(F)F)c3c(O)ncnc32)[C@H](O)[C@@H]1O | > 64 µM | 10.9 µM | 3.28 µM | 0.1 | 0.3 |
| Nc1nc(O)c2ccn([C@@H]3O[C@H](CO)C[C@H]3O)c2n1 | > 64 µM | > 64 µM | > 64 µM | – | – |
| Nc1ncc2ccn([C@@H]3O[C@H](CO)[C@@H](O)[C@H]3O)c2n1 | > 64 µM | > 64 µM | > 64 µM | – | – |
| Cc1ccc(C(=O)Nc2ccc(S(=O)(=O)O)c3cc(S(=O)(=O)O)cc(S(=O)(=O)O)c23)cc1NC(=O)c1cccc(NC(=O)Nc2cccc(C(=O)Nc3cc(C(=O)Nc4ccc(S(=O)(=O)O)c5cc(S(=O)(=O)O)cc(S(=O)(=O)O)c45)ccc3C)c2)c1 [SURAMIN] | 0.028 µM | 0.033 µM | – | – | – |
| COc1ncnc2c1c(-c1ccccc1)cn2[C@@H]1O[C@H](CO)[C@@H](O)[C@H]1O | > 64 µM | > 64 µM | > 64 µM | – | – |
